Patent US9034850B2, “Gonadotropin releasing hormone receptor antagonist, preparation method thereof and pharmaceutical composition comprising the same” (SK Chemicals Co., Ltd., priority 2009, dated 2015)

Test system: not listed separately
Assay: Assay for oral absorptivity (plasma drug level after oral administration)
Assay type: in vivo
Conditions: male, rat, 40 umol/kg; SD rats, oral, plasma
Method: 1) Preparation of Specimen for Measuring Drug Level upon Oral Administration
For use as experimental animals, SD rats (Charles River Japan, male, 8 weeks old, 220-270 g) was starved overnight. Test compounds (25˜30 mg) were dissolved in polyethyleneglycol 400 (PEG400) 20%, and a 0.5% carboxy methyl cellulose (CMC) solution 80% to produce solutions of 4 μmmol/mL. The rats were weighed. The test compounds were orally administered at a dose of 40 μmol/kg (ca. 25˜30 mg/kg) to the rats using a sonde and a 3 mL syringe. Blood samples were taken 20, 40, 60, 120, 240, and 360 min after the oral administration. Plasmas separated from the blood samples by centrifugation were used as specimens.
2) Measurement of Drug Level
0.09 mL of methanol was added to 0.03 mL of the plasma obtained in 1), followed by vortexing to precipitate and remove proteins. 0.005 mL of the supernatant was injected to LC/MS/MS.
Apparatus: Shiseido Nanospace SI-2
Column: Shiseido capcelpack C18, MG3, 5 um, 2.0 mm I.D×50 mm
Mobile Phase: a mixture of 3:7 10 mM ammonium formate (pH 4.0): acetonitrile.

| Structure (SMILES) | Cmax [ng/mL] |
| --- | --- |
| Cc1cc(F)cc([C@H](Cn2c(=O)c(N3CCN(Cc4ccc(C(F)(F)F)o4)CC3)c(C)n(Cc3c(F)cccc3C(F)(F)F)c2=O)NCCCC(=O)O)c1 [Compound 11-4] | 4140 |
| Cc1c(N2CCN(Cc3cccc(C(F)(F)F)c3)CC2)c(=O)n(C[C@H](NCCCC(=O)O)c2ccccc2)c(=O)n1Cc1c(F)cccc1C(F)(F)F [Compound 11-2] | 5100 |

Same assay, conditions: male, rat, 40 μmol/kg; plasma drug level after oral administration, SD rats; read-out: AUC8 hr

| Structure (SMILES) | AUC(0-t) [ng·h/mL] |
| --- | --- |
| Cc1cc(F)cc([C@H](Cn2c(=O)c(N3CCN(Cc4ccc(C(F)(F)F)o4)CC3)c(C)n(Cc3c(F)cccc3C(F)(F)F)c2=O)NCCCC(=O)O)c1 [Compound 11-4] | 19600 |
| Cc1c(N2CCN(Cc3cccc(C(F)(F)F)c3)CC2)c(=O)n(C[C@H](NCCCC(=O)O)c2ccccc2)c(=O)n1Cc1c(F)cccc1C(F)(F)F [Compound 11-2] | 29400 |

Biological target: T1, GnRH receptor (Homo sapiens, UniProt P30968)
T1 sequence (P30968 1-328): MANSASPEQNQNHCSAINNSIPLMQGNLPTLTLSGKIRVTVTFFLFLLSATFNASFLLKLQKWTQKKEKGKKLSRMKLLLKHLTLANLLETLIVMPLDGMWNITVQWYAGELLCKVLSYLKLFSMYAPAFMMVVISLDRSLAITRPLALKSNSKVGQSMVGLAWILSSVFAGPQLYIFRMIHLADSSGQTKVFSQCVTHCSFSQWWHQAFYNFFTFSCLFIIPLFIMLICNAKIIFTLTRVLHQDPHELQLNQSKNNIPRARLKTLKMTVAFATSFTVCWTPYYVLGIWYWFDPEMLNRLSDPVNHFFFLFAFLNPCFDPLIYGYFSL
Assay: GnRH receptor membrane binding assay ([125I]-D-Trp6-LHRH competition)
Design: purchased Perkin Elmer; host or cells: CHO-K1 (stably transfected), membrane preparation
Conditions: not given
Method: A membrane Target system (Perkin Elmer), isolated from CHO-K1 cells stably transfected with a GnRH receptor, was employed. […] After incubation at 27° C. for 1 hr, the reaction mix was transferred to a filter (Fitermat A, PerkinElmer) using a vacuum pump and the reaction was terminated by washing many times with 50 mM tris-HCl buffer. The radioactivity on the filter was measured using Microbeta2 trilux (PerkinElmer). The competitors were analyzed for binding inhibition rate (%) on the basis of the measured radioactivity and calculated for IC50 values using a nonlinear least square regression method with Prism (GraphPad, Inc.).

| Structure (SMILES) | IC50 [nM] |
| --- | --- |
| Cc1c(N2CCN(Cc3cccc(C(F)(F)F)c3F)CC2)c(=O)n(C[C@H](N)c2ccccc2)c(=O)n1Cc1c(F)cccc1F [Compound 3-50] | < 100 |
| Cc1c(N2CCN(Cc3ccc(O)cc3)CC2)c(=O)n(C[C@H](N)c2ccccc2)c(=O)n1Cc1c(F)cccc1F [Compound 3-31] | < 100 |
| Cc1c(N2CCN(Cc3cccc(OC(F)(F)F)c3)CC2)c(=O)n(C[C@H](N)c2ccccc2)c(=O)n1Cc1c(F)cccc1F [Compound 3-1] | < 100 |
| Cc1c(N2CCCC(C)C2)c(=O)n(C[C@H](N)c2ccccc2)c(=O)n1Cc1c(F)cccc1F (stereo partly drawn) [Compound 1-18] | < 100 |
| Cc1c(N2CCN(Cc3cccc(C(F)(F)F)c3)CC2)c(=O)n(C[C@H](N)c2ccccc2)c(=O)n1Cc1c(F)cccc1F [Compound 3-47] | < 100 |

Same assay, conditions: membrane from CHO-K1 cells stably transfected with GnRH receptor; 0.2 nM [125I]-D-Trp6-LHRH; Table 26 lists compounds with IC50 of less than 100 nM; read-out: IC50 as measured by the GnRH receptor membrane binding assay

| Structure (SMILES) | IC50 [nM] |
| --- | --- |
| Cc1c(N2CCN(Cc3ccc(OC(F)(F)F)cc3)CC2)c(=O)n(C[C@H](N)c2ccccc2)c(=O)n1Cc1c(F)cccc1F [Compound 3-49] | < 100 |
| Cc1c(N2CCN(Cc3ccc4c(c3)OCO4)CC2)c(=O)n(C[C@H](N)c2ccccc2)c(=O)n1Cc1c(F)cccc1F [Compound 1-13] | < 100 |
| Cc1c(N2CCN(Cc3ccc(C(F)(F)F)o3)CC2)c(=O)n(C[C@H](NCCCCC(=O)O)c2ccccc2)c(=O)n1Cc1c(F)cccc1C(F)(F)F [Compound 11-8] | < 100 |
| Cc1ccc(CN2CCN(c3c(C)n(Cc4c(F)cccc4F)c(=O)n(C[C@H](N)c4ccccc4)c3=O)CC2)c(C)c1 [Compound 4-4] | < 100 |
| N[C@@H](Cn1c(=O)c(N2CCN(Cc3cccc(-c4nnn[nH]4)c3)CC2)cn(Cc2c(F)cccc2C(F)(F)F)c1=O)c1ccccc1 [Compound 18, 3-((R)-2-amino-2-phenyl-ethyl)-1-(2-fluoro-6-trifluoromethyl-benzyl)-5-{4-[3-(1H-tetrazol-5-yl)-benzyl]-piperazin-1-yl}-1H-pyrimidine-2,4-dione] | < 100 |
| Cc1c(N2CCN(Cc3ccc(C(F)(F)F)o3)C(CO)C2)c(=O)n(C[C@H](N)c2ccccc2)c(=O)n1Cc1c(F)cccc1C(F)(F)F (stereo partly drawn) [Compound 22, 3-((R)-2-amino-2-phenyl-ethyl)-1-(2-fluoro-6-trifluoromethyl-benzyl)-5-[3-hydroxymethyl-4-(5-trifluoromethyl-furan-2-ylmethyl)-piperazin-1-yl]-6-methyl-1H-pyrimidine-2,4-dione] | < 100 |
| Cc1cc(C)c(CN2CCN(c3c(C)n(Cc4c(F)cccc4F)c(=O)n(C[C@H](N)c4ccccc4)c3=O)CC2)c(C)c1 [Compound 3-32] | < 100 |
| CSc1ccc(CN2CCN(c3c(C)n(Cc4c(F)cccc4F)c(=O)n(C[C@H](N)c4ccccc4)c3=O)CC2)cc1 [Compound 3-29] | < 100 |
| Cc1c(N2CCC(Cc3ccccc3)CC2)c(=O)n(C[C@H](N)c2ccccc2)c(=O)n1Cc1c(F)cccc1F [Compound 1-26] | < 100 |
| Cc1cccc(CN2CCN(c3c(C)n(Cc4c(F)cccc4F)c(=O)n(C[C@H](N)c4ccccc4)c3=O)CC2)c1O [Compound 4-9] | < 100 |
| Cc1c(N2CCN(Cc3cccnc3)CC2)c(=O)n(C[C@H](N)c2ccccc2)c(=O)n1Cc1c(F)cccc1F [Compound 3-7] | < 100 |
| Cc1c(N2CCN(Cc3ccc(C(F)(F)F)o3)CC2)c(=O)n(C[C@H](O)c2ccccc2)c(=O)n1Cc1c(F)cccc1C(F)(F)F [Compound 20, 1-(2-fluoro-6-trifluoromethyl-benzyl)-3-((R)-2-hydroxy-2-phenyl-ethyl)-6-methyl-5-[4-(5-trifluoromethyl-furan-2-ylmethyl)-piperazin-1-yl]-1H-pyrimidine-2,4-dione] | < 100 |
| COC(=O)CNC(=O)c1cccc(CN2CCN(c3c(C)n(Cc4c(F)cccc4C(F)(F)F)c(=O)n(C[C@H](N)c4ccccc4)c3=O)CC2)c1 [Compound 10-1] | < 100 |
| CCOC(=O)CCNC(=O)c1cccc(CN2CCN(c3c(C)n(Cc4c(F)cccc4C(F)(F)F)c(=O)n(C[C@H](N)c4ccccc4)c3=O)CC2)c1 [Compound 10-2] | < 100 |
| Cc1c(N2CCC(C)CC2)c(=O)n(C[C@H](N)c2ccccc2)c(=O)n1Cc1c(F)cccc1F [Compound 1-16] | < 100 |
| Cc1cccc(C)c1CN1CCN(c2c(C)n(Cc3c(F)cccc3F)c(=O)n(C[C@H](N)c3ccccc3)c2=O)CC1 [Compound 4-6] | < 100 |
| Cc1c(N2CCN(Cc3ccc(F)c(C(F)(F)F)c3)CC2)c(=O)n(C[C@H](N)c2ccccc2)c(=O)n1Cc1c(F)cccc1F [Compound 3-52] | < 100 |
| Cc1c(N2CCN(Cc3ccc(C(F)(F)F)o3)CC2)c(=O)n(C[C@H](NCCC(O)C(=O)O)c2ccccc2)c(=O)n1Cc1c(F)cccc1C(F)(F)F (stereo partly drawn) [Compound 21, 4-((R)-2-{3-(2-fluoro-6-trifluoromethyl-benzyl)-4-methyl-2,6-dioxo-5-[4-(5-trifluoromethyl-furan-2-ylmethyl)-piperazin-1-yl]-3,6-dihydro-2H-pyrimidin-1-yl}-1-phenyl-ethylamino)-2-hydroxy-butyric acid] | < 100 |
| CCOP(=O)(O)CCCN[C@@H](Cn1c(=O)c(N2CCN(Cc3ccc(C(F)(F)F)o3)CC2)c(C)n(Cc2c(F)cccc2C(F)(F)F)c1=O)c1ccccc1 [Compound 11-10] | < 100 |

Biological target: T1, GnRH receptor
Assay: GnRH-R reporter assay (NFAT promoter luciferase, leuprolide acetate as ligand)
Assay type: cell-based
Conditions: not given
Method: A double-transformed cell line (HEK293 transformed with pcDNA3.1/GnRH receptor and pGL4/NFAT promoter) was employed. To conduct a GnRH-R reporter assay, the double-transformed cell line was diluted at a density of 3×10^4 cells/well in a medium (DMEM, 10% FBS, 1% Penicillin-Streptomycin), plated into polylysine-coated white-clear bottom 96-well plates and incubated for 24 hrs. After the medium was changed with a serum-free medium (DMEM, 1% Penicillin-Streptomycin), the cells were incubated for an additional 12 hrs before reaction. The cells were incubated for 1 hr with a GnRH antagonist to be tested and then for an additional 6 hrs with a ligand (leuprolide acetate, Sigma), followed by reaction with a Luciferase assay system (Promega, Cat. No. E1500).
Each sample was analyzed at a 6-dose level to obtain the binding inhibitory rates (%) of the competitors on the basis of the measured luminescence. IC50 values were calculated using a nonlinear least square regression method with Prism (GraphPad, Inc.).

| Structure (SMILES) | IC50 [nM] |
| --- | --- |
| Cc1c(N2CCN(Cc3cccc(C(F)(F)F)c3)CC2)c(=O)n(C[C@H](NCCCC(=O)O)c2ccccc2)c(=O)n1Cc1c(F)cccc1C(F)(F)F [Compound 11-2] | 9.9 |

Same assay, conditions: HEK293 transformed with pcDNA3.1/GnRH receptor and pGL4/NFAT promoter; luciferase; read-out: IC50 Value

| Structure (SMILES) | IC50 [nM] |
| --- | --- |
| Cc1cc(F)cc([C@H](Cn2c(=O)c(N3CCN(Cc4ccc(C(F)(F)F)o4)CC3)c(C)n(Cc3c(F)cccc3C(F)(F)F)c2=O)NCCCC(=O)O)c1 [Compound 11-4] | 4.9 |
